Assay results published in EP3323412A1, “FORMULATION COMPRISING 4-METHYLPYRAZOLE” (Amalicon Holding AG, priority 2016, dated 2018).

Assay: in vivo
Parameters: species or system dogs
Details: dog, iv, 10 mg/kg
Description: The formulations of 4-MP with PEG-300 and PEG-400 show an oral bioavailability of about 110% when compared with an i.v. formulation at a dose of 10mg/kg in PK studies in dogs.
The following tables 1 to 3 show results of pharmacokinetic studies of the formulation of Example 3 (capsule containing 50 mg 4-MP and 250 mg PEG-400; Table 1) in comparison with a reference formulation (capsule containing 50 mg 4-MP and PEG-8000; Table 2) and IV administration of 4-MP. For these pharmacokinetic studies, 4-MP was administered to dogs at 10 mg/kg body weight. Table 1: Pharmacokinetic parameters of 4-methylpyrazole following oral administration of the formulation of Example 3 at 10 mg/kg: […]

AUC(0-t) (AUC0-t): 88.3 µg·h/mL | AUC(0-inf) (AUC0-∞): 145 µg·h/mL | clearance (CL): 1.15 mL/min/kg | Cmax (Cmax): 22600 ng/mL | Vd (Vd): 0.94 L/kg | Vd (Vdss): 0.89 L/kg
SMILES: Cc1cn[nH]c1 [4-methylpyrazole, 4-Methylpyrazole]
